# Data from US20230183243A1, “HETEROARYL DERIVATIVES AND PHARMACEUTICAL COMPOSITION COMPRISING SAME AS ACTIVE INGREDIENT” (VORONOI INC., priority 2019, published 2023).
# Experiments:
# Test in all cases: ScanMAX Kinase panel (DiscoverX)
# Assay type in all cases: binding
# CAMKK2 = target: T1, CAMKK2 (Homo sapiens, UniProt Q96RR4); conditions: read-out: % Cont @ 1 μM
# T1 construct: purchased DiscoverX Corp. ScanMAX Kinase panel
# Protocol: (§1) Further, to evaluate the inhibitory activity of the compound according to the present invention against more enzymes, an experiment was performed as follows. Specifically, the enzyme (kinase) selectivity of the compound of Example 64 selected from the Example compounds of the present invention was measured by commissioning DiscoverX Corp., and an experiment was performed using a panel for ScanMAX™ Kinase analysis. In this case, the concentration of a drug treated with the enzyme was set at 1 μM in DMSO, and the percent control (% control) were defined in the same manner as in the following Expression 1.
# (§2) (Example compound−Positive control)/(Negative control−Positive control)×100 [Expression 1]
# (§3) Wherein the positive control represents a compound having a percent control of 0%, and the negative control represents a compound having a percent control of 100% in DMSO. For the enzyme selectivity of the present invention, the compound was also judged to have activity against the corresponding enzyme when the percent control for each of the enzymes was <35% (i.e., less than 35%).
# [1] = target: T2, TYK2(JH1domain-catalytic) (Homo sapiens, UniProt P29597)
# T2 construct: TYK2(JH1domain-; purchased DiscoverX Corp. (ScanMAX Kinase panel, commissioned)
# Protocol: as §1, §2, §3
# DYRK1B = target: T3, DYRK1B (Homo sapiens, UniProt Q9Y463); conditions: read-out: % Cont @ 1 μM
# T3 construct: purchased DiscoverX Corp. ScanMAX Kinase panel
# Protocol: as §1, §2, §3
# CSNK1E = target: T4, CSNK1E (Homo sapiens, UniProt P49674); conditions: read-out: % Cont @ 1 μM
# T4 construct: purchased DiscoverX Corp. ScanMAX Kinase panel
# Protocol: as §1, §2, §3
# SNARK = target: T5, SNARK (Homo sapiens, UniProt Q9H093)
# T5 construct: purchased DiscoverX Corp. (ScanMAX Kinase panel, commissioned)
# Protocol: as §1, §2, §3
# KIT(V559D, V654A) = target: T6, KIT(V559D, V654A) (Homo sapiens, UniProt P10721, V559D/V654A); conditions: read-out: % Cont @ 1 μM
# T6 construct: purchased DiscoverX Corp. ScanMAX Kinase panel
# Protocol: as §1, §2, §3
# YSK4 = target: T7, YSK4 (Homo sapiens, UniProt Q56UN5); conditions: read-out: % Cont @ 1 μM
# T7 construct: purchased DiscoverX Corp. (ScanMAX Kinase panel, commissioned)
# Protocol: as §1, §2, §3
# ULK1 = target: T8, ULK1 (Homo sapiens, UniProt O75385)
# T8 construct: purchased DiscoverX Corp. ScanMAX Kinase panel
# Protocol: as §1, §2, §3
# CAMK2D = target: T9, CAMK2D (Homo sapiens, UniProt Q13557); conditions: read-out: % Cont @ 1 μM
# T9 construct: purchased DiscoverX Corp. ScanMAX Kinase panel
# Protocol: as §1, §2, §3
# ULK3 = target: T10, ULK3 (Homo sapiens, UniProt Q6PHR2)
# T10 construct: purchased DiscoverX Corp. ScanMAX Kinase panel
# Protocol: as §1, §2, §3
# CSNK1D = target: T11, CSNK1D (Homo sapiens, UniProt P48730); conditions: read-out: % Cont @ 1 μM
# T11 construct: purchased DiscoverX Corp. ScanMAX Kinase panel
# Protocol: as §1, §2, §3
# [2] = target: T12, TYK2(JH2domain-pseudokinase) (Homo sapiens, UniProt P29597)
# T12 construct: TYK2(JH2domain-; purchased DiscoverX Corp. ScanMAX Kinase panel
# Protocol: as §1, §2, §3
# TRKB = target: T13, TRKB (Homo sapiens, UniProt Q16620); conditions: read-out: % Cont @ 1 μM
# T13 construct: purchased DiscoverX Corp. ScanMAX Kinase panel
# Protocol: as §1, §2, §3
# [3] = target: T14, JAK2(JH1domain-catalytic) (Homo sapiens, UniProt O60674)
# T14 construct: JAK2(JH1domain-; purchased DiscoverX Corp. (ScanMAX Kinase panel, commissioned)
# Protocol: as §1, §2, §3
# MEK4 = target: T15, MEK4 (Homo sapiens, UniProt P45985); conditions: read-out: % Cont @ 1 μM
# T15 construct: purchased DiscoverX Corp. ScanMAX Kinase panel
# Protocol: as §1, §2, §3
# PKN2 = target: T16, PKN2 (Homo sapiens, UniProt Q16513); conditions: read-out: % Cont @ 1 μM
# T16 construct: purchased DiscoverX Corp. ScanMAX Kinase panel
# Protocol: as §1, §2, §3
# FLT3(ITD) = system: FLT3(ITD)
# Protocol: as §1, §2, §3
# CAMKK1 = target: T17, CAMKK1 (Homo sapiens, UniProt Q8N5S9); conditions: read-out: % Cont @ 1 μM
# T17 construct: purchased DiscoverX Corp. (ScanMAX Kinase panel, commissioned)
# Protocol: as §1, §2, §3
# PRKCE = target: T18, PRKCE (Homo sapiens, UniProt Q02156); conditions: read-out: % Cont @ 1 μM
# T18 construct: purchased DiscoverX Corp. (ScanMAX Kinase panel, commissioned)
# Protocol: as §1, §2, §3
# FLT3(ITD, D835V) = system: FLT3(ITD, D835V)
# Protocol: as §1, §2, §3
# SBK1 = target: T19, SBK1 (Homo sapiens, UniProt Q52WX2); conditions: read-out: % Cont @ 1 μM
# T19 construct: purchased DiscoverX Corp. ScanMAX Kinase panel
# Protocol: as §1, §2, §3
# AAK1 = target: T20, AAK1 (Homo sapiens, UniProt Q2M2I8); conditions: read-out: % Cont @ 1 μM
# T20 construct: purchased DiscoverX Corp. ScanMAX Kinase panel
# Protocol: as §1, §2, §3
# RIOK1 = target: T21, RIOK1 (Homo sapiens, UniProt Q9BRS2); conditions: read-out: % Cont @ 1 μM
# T21 construct: purchased DiscoverX Corp. ScanMAX Kinase panel
# Protocol: as §1, §2, §3
# [4] = target: T22, RSK2(Kin.Dom.1-N-terminal) (Homo sapiens, UniProt P51812); conditions: read-out: % Cont @ 1 μM
# T22 construct: RSK2(Kin.Dom.1-; purchased DiscoverX Corp. (ScanMAX Kinase panel, commissioned)
# Protocol: as §1, §2, §3
# [5] = target: T23, RSK4(Kin.Dom.1-N-terminal) (Homo sapiens, UniProt Q9UK32)
# T23 construct: RSK4(Kin.Dom.1); purchased DiscoverX Corp. ScanMAX Kinase panel
# Protocol: as §1, §2, §3
# MAP3K2 = target: T24, MAP3K2 (Homo sapiens, UniProt Q9Y2U5); conditions: read-out: % Cont @ 1 μM
# T24 construct: purchased DiscoverX Corp. ScanMAX Kinase panel
# Protocol: as §1, §2, §3
# GAK = target: T25, GAK (Homo sapiens, UniProt O14976); conditions: read-out: % Cont @ 1 μM
# T25 construct: purchased DiscoverX Corp. ScanMAX Kinase panel
# Protocol: as §1, §2, §3
# FLT3(D835V) = target: T26, FLT3(D835V) (Homo sapiens, UniProt P36888, D835V); conditions: read-out: % Cont @ 1 μM
# T26 construct: purchased DiscoverX Corp. (ScanMAX Kinase panel, commissioned)
# Protocol: (§4) Specifically, the enzyme (kinase) selectivity of the compound of Example 7 selected from the Example compounds of the present invention was measured by commissioning DiscoverX Corp., and an experiment was performed using a panel for ScanMAX™ Kinase analysis.
# (§5) In this case, the concentration of a drug treated with the enzyme was set at 1 μM in DMSO, and percent control (% control) was defined in the same manner as in the following Expression 1.
# as §2
# as §3, with “<30%” for “<35%”, “30%).” for “35%).”
# MEK3 = target: T27, MEK3 (Homo sapiens, UniProt P46734); conditions: read-out: % Cont @ 1 μM
# T27 construct: purchased DiscoverX Corp. (ScanMAX Kinase panel, commissioned)
# Protocol: as §4, §5, §2
# as §3, with “<30%” for “<35%”, “30%).” for “35%).”
# T6 sequence (P10721 26-976 V559D/V654A): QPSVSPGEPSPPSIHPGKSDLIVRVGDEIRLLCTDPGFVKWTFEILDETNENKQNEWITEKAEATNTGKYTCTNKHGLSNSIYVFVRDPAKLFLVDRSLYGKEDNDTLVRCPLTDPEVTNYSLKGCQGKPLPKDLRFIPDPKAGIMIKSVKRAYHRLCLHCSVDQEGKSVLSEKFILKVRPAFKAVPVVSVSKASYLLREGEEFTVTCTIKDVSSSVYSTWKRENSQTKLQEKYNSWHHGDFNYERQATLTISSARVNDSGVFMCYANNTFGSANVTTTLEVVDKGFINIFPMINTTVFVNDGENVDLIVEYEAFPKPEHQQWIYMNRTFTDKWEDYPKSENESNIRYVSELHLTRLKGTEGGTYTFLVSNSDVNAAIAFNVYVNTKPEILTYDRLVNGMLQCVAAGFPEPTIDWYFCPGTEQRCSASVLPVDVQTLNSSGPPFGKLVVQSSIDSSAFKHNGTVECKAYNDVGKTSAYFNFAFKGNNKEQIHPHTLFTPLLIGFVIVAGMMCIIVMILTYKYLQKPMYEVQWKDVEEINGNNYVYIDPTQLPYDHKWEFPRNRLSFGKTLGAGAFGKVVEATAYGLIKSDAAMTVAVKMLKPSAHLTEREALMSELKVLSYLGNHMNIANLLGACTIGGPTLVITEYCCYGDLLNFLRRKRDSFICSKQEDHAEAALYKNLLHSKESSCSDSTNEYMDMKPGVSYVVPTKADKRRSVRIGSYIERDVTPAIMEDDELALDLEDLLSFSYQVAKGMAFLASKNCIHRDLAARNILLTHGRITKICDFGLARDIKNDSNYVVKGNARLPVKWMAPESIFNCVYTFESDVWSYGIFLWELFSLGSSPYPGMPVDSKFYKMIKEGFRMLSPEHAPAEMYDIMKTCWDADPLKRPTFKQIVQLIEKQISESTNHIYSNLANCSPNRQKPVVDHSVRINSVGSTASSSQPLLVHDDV
# T22 sequence (P51812 68-327 limits assumed): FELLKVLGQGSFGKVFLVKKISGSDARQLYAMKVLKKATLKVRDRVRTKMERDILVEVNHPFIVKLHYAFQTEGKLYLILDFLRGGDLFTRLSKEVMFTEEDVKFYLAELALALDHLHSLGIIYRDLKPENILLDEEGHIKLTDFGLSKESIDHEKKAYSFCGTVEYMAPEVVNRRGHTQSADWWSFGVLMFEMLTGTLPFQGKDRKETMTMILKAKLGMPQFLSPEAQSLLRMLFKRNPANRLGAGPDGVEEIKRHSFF
# T5 sequence (Q9H093 whole entry): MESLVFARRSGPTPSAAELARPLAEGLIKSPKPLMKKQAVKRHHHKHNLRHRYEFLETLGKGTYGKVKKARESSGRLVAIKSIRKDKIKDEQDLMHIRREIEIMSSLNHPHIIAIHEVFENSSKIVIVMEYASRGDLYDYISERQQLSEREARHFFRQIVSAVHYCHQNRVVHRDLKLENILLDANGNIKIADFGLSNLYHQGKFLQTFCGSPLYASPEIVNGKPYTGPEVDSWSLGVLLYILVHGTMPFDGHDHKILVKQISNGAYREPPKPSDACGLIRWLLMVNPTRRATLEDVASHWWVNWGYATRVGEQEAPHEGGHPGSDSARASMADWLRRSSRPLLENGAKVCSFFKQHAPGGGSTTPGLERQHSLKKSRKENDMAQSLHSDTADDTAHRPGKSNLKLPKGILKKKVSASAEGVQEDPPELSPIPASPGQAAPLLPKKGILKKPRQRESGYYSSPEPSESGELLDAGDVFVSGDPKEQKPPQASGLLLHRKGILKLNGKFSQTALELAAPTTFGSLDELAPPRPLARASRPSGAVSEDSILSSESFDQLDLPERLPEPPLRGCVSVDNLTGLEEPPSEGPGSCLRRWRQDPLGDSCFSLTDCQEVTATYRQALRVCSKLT
# T12 sequence (P29597 589-875 limits assumed): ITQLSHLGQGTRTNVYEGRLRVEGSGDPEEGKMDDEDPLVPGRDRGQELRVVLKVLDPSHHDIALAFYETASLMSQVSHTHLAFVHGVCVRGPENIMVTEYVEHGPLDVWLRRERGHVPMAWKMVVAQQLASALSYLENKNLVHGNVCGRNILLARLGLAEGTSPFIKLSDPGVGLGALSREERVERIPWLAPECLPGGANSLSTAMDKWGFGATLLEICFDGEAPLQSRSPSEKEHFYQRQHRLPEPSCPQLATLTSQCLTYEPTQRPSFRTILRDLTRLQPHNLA
# T4 sequence (P49674 whole entry): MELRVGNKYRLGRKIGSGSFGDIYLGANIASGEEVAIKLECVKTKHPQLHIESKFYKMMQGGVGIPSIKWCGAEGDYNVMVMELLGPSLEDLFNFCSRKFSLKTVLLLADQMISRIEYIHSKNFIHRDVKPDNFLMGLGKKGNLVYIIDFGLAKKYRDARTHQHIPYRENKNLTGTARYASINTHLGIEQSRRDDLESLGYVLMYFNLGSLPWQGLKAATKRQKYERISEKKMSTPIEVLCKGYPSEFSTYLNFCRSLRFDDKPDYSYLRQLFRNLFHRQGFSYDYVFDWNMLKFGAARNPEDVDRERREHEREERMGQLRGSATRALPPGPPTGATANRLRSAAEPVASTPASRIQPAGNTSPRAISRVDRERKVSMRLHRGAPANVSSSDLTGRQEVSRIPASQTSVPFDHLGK
# T16 sequence (Q16513 whole entry): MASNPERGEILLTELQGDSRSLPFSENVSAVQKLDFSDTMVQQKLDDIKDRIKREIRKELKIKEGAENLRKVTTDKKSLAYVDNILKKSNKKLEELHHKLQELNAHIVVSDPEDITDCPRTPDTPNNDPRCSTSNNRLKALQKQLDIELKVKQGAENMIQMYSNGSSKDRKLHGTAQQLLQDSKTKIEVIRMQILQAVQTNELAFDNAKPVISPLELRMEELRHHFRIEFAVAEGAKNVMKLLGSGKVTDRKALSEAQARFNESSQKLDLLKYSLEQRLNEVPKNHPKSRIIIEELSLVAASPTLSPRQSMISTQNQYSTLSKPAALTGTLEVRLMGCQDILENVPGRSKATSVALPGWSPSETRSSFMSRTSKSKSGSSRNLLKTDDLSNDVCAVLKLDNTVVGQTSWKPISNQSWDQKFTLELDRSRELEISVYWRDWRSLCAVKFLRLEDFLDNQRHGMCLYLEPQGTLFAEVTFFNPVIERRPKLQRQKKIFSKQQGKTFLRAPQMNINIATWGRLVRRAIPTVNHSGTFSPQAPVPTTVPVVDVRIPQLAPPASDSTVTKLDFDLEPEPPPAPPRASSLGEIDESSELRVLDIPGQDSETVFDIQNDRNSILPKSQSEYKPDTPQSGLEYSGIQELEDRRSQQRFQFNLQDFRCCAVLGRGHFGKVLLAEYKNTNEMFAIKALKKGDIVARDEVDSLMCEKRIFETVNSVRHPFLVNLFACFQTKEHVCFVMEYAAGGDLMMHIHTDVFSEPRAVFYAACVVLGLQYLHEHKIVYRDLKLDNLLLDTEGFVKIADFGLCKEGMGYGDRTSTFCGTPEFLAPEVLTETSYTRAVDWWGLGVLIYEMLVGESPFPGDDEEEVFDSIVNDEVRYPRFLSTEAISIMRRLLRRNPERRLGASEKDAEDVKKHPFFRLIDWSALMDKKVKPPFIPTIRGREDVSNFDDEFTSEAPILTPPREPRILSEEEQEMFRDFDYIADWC
# T14 sequence (O60674 849-1124 limits assumed): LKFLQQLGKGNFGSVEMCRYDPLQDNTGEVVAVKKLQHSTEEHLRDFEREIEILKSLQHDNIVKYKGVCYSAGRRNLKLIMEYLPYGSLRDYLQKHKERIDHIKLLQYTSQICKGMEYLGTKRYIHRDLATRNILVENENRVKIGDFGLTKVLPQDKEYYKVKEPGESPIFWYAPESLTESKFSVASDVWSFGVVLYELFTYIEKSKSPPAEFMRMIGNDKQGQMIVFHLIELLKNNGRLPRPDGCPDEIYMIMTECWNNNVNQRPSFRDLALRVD
# T2 sequence (P29597 897-1176 limits assumed): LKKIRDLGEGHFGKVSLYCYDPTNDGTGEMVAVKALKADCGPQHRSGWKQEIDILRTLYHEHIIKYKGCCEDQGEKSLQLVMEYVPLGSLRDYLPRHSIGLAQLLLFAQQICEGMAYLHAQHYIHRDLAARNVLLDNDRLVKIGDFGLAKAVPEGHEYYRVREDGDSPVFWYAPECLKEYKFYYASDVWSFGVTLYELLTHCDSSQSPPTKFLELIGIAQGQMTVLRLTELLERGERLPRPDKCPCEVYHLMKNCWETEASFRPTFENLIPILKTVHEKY
# T19 sequence (Q52WX2 whole entry): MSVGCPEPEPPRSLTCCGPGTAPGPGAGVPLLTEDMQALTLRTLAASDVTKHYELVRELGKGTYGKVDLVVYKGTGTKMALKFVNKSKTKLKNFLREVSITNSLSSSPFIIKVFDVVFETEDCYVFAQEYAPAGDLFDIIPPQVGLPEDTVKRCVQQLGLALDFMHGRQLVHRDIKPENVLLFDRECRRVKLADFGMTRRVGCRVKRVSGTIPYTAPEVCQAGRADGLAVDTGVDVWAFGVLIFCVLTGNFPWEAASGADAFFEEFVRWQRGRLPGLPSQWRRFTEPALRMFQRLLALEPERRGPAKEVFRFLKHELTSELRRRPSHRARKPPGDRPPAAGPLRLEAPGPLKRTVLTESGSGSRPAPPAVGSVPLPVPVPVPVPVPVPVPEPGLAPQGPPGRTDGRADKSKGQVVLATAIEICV
# T10 sequence (Q6PHR2 whole entry): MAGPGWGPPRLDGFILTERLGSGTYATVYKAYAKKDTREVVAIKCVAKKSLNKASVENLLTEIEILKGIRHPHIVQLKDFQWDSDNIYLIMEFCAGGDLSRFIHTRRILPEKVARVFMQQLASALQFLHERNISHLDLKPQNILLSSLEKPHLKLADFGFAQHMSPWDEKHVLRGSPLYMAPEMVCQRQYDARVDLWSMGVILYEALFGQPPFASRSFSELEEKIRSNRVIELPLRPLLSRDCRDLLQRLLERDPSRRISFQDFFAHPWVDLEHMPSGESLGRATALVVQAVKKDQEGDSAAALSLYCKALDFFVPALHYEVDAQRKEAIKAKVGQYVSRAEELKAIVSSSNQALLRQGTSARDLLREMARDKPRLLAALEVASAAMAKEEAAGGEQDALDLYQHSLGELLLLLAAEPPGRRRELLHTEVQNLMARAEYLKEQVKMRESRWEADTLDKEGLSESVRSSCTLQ
structure (smiles),measurement,setting,value
"COc1cc(N2CCCC2=O)ccc1Nc1cc(NC2CCCCC2)c2c(C#N)c[nH]c2n1 [Example 64, 4-(cyclohexylamino)-6-((2-methoxy-4-(2-oxopyrrolidin-1-yl)phenyl)amino)-1H-pyrrolo[2,3-b] pyridine-3-carbonitrile]",remaining binding at 1 µM,CAMKK2,2.2%
same,% Cont @ 1 μM,[1],1.7%
same,remaining binding at 1 µM,DYRK1B,28%
same,remaining binding at 1 µM,CSNK1E,24%
same,% Cont @ 1 μM,SNARK,0%
same,remaining binding at 1 µM,"KIT(V559D, V654A)",14%
same,percent of control binding at 1 µM,YSK4,0.3%
same,% Cont @ 1 μM,ULK1,3.1%
same,percent of control at 1 µM,CAMK2D,12%
same,% Cont @ 1 μM,ULK3,2.6%
same,percent of control at 1 µM,CSNK1D,19%
same,% Cont @ 1 μM,[2],7.2%
same,remaining binding at 1 µM,TRKB,3.9%
same,% Cont @ 1 μM,[3],0%
same,remaining binding at 1 µM,MEK4,27%
same,remaining binding at 1 µM,PKN2,28%
same,% Cont @ 1 μM,FLT3(ITD),17%
same,remaining binding at 1 µM,CAMKK1,1.6%
same,percent of control binding at 1 µM,PRKCE,1.4%
same,% Cont @ 1 μM,"FLT3(ITD, D835V)",1.2%
same,remaining binding at 1 µM,SBK1,5.7%
same,remaining binding at 1 µM,AAK1,4.4%
same,remaining binding at 1 µM,RIOK1,27%
same,remaining binding at 1 µM,[4],1.9%
same,% Cont @ 1 μM,[5],3.7%
same,remaining binding at 1 µM,MAP3K2,13%
same,remaining binding at 1 µM,GAK,4.4%
"COc1cc(-c2ccnn2C)ccc1Nc1nc(NC2CCCCC2)c2c(C#N)c[nH]c2n1 [Example 7, 4-(cyclohexylamino)-2-((2-methoxy-4-(1-methyl-1H-pyrazol-5-yl)phenyl)amino)-7H-pyrrolo[2,3-d] pyrimidine-5-carbonitrile]",remaining binding at 1 µM,FLT3(D835V),5.6%
same,remaining binding at 1 µM,MEK3,18%
